Data taken from US12371454B2, “Cyclic peptide compound having Kras inhibitory action” (priority 2019, dated 2025).
Starred links: 1 amine or outer side, 2 acyl side, 3 side chain; linkers in the order of their positions; H or OH if unused. Positions of bridges follow the written chain, without caps; N, C: chain ends. Non-standard residues stand in square brackets, D forms with d. Residues, ends and D or L forms follow the SMILES beside them. *: point of attachment. hPhe(3-Cl-4-CF3) = N[C@@H](CCc1ccc(C(F)(F)F)c(Cl)c1)C(=O)O; hPhe(3-F,4-CF3) = N[C@@H](CCc1ccc(C(F)(F)F)c(F)c1)C(=O)O; NEtPhe(4-Cl) = CCN[C@@H](Cc1ccc(Cl)cc1)C(=O)O; NMeAbu(4,4,4-F3) = CN[C@@H](CC(F)(F)F)C(=O)O; NMePhe(4-Me) = CN[C@@H](Cc1ccc(C)cc1)C(=O)O; NMePhe(4-I) = CN[C@@H](Cc1ccc(I)cc1)C(=O)O; hPhe(4-Cl) = N[C@@H](CCc1ccc(Cl)cc1)C(=O)O; NMedβ3hAla = C[C@H](CC(=O)[*:2])N(C)[*:1]; NMeAla(cPent) = CN[C@@H](CC1CCCC1)C(=O)O; NMeGly(cPent) = CN[C@H](C(=O)O)C1CCCC1; dαMeGly(allyl) = C=CC[C@@](C)(N)C(=O)O; NMeGly(cBu) = CN[C@H](C(=O)O)C1CCC1; NMeCha = CN[C@@H](CC1CCCCC1)C(=O)O; NMeChg = CN[C@H](C(=O)O)C1CCCCC1; NMeI = CC[C@H](C)[C@H](NC)C(=O)O; NMeD = CN[C@@H](CC(=O)O)C(=O)O; NMeHpra = C#CCC[C@H](NC)C(=O)O; NMeL = CN[C@@H](CC(C)C)C(=O)O; NEtAla = CCN[C@@H](C)C(=O)O; NMeV = CN[C@H](C(=O)O)C(C)C; d(β3hA) = C[C@@H](N)CC(=O)O; NMeS = CN[C@@H](CO)C(=O)O; NMeA = CN[C@@H](C)C(=O)O; Piperidide = C1CCN(*)CC1; Pyrrolidide = C1CCN(*)C1; dNMeA = CN[C@H](C)C(=O)O; Ac5c = NC1(C(=O)O)CCCC1; Aze = O=C(O)[C@@H]1CCN1; Cyclobutyl = C1CC(*)C1; Isopentyl = CC(C)CC*; Sar = CNCC(=O)O

How the values were obtained:
[1] = biological target: T1, Kras and SOS1 (biotin-tagged human Kras loaded with GDP, His-tagged human SOS1) (Homo sapiens, UniProt P01116, G12D); assay: Protein-protein interaction inhibition between Kras and SOS1 (KrasGl2D-SOS PPI) using AlphaScreen; format: binding; settings: AlphaScreen; biotin-tagged human Kras loaded with GDP, His-tagged human SOS1; read-out: KRAS G12D-SOS PPI IC50
T1 construct: made in house; host or cells: E. coli (stated for Kras only)
T1 sequence (P01116 1-188 isoform P01116-2 G12D): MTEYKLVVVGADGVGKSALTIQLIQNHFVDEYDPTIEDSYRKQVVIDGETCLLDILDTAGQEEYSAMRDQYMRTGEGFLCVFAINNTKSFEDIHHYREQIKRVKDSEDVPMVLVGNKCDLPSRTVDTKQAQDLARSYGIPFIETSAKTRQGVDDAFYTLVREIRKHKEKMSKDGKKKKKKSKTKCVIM
How it was run: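 Energy transfer from nickel-chelate donor beads bound to His-SOS1 to streptavidin acceptor beads bound to biotin-Kras, expressed in E. coli and loaded with GDP after purification, was monitored. Donors were excited at 680 nm; singlet oxygen reaching acceptors gave emission read at 520-620 nm.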

[2] = tested on: Human pancreatic cancer cell line AsPC-1; assay: Measurement of AsPC-1 cell growth inhibition (AsPC-1 CGI); format: cell-based; settings: 96 h
How it was run: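 AsPC-1 cells in 15% FBS RPMI-1640 were exposed to test compound for 96 hours at 37° C, with CellTiter-Glo as endpoint.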

Row | Compound | IC50 [1] [nM] | IC50 [2] [nM]
1 | CC[C@H](C)[C@@H]1NC(=O)[C@H](C)N(C)C(=O)C[C@@H](C(=O)N2CCCCC2)N(C)C(=O)[C@H](C2CCCC2)N(C)C(=O)C2(CCCC2)NC(=O)[C@@H]2CCCN2C(=O)[C@H](CCc2ccc(C(F)(F)F)c(Cl)c2)NC(=O)CN(C)C(=O)[C@H](CC2CCCCC2)N(C)C(=O)CN(C)C(=O)CN(C)C1=O [Compound 246] ([NMeA]I[Sar][Sar][NMeCha][Sar][hPhe(3-Cl-4-CF3)]P[Ac5c][NMeGly(cPent)][NMeD]-Piperidide; lactam N-11) | 0.3 | 50 to 100
2 | CC[C@H](C)[C@@H]1NC(=O)[C@H](CC(C)C)N(C)C(=O)C[C@@H](C(=O)N(C)C)N(C)C(=O)[C@H](C2CCCC2)N(C)C(=O)C2(CCCC2)NC(=O)[C@H](COCCC(C)C)N(C)C(=O)[C@H](CCc2ccc(C(F)(F)F)c(Cl)c2)NC(=O)CN(C)C(=O)[C@H](CC2CCCCC2)N(C)C(=O)[C@@H]2CCN2C(=O)[C@H](C)N(C)C1=O [Compound 250] ([NMeL]I[NMeA][Aze][NMeCha][Sar][hPhe(3-Cl-4-CF3)][NMeS](Isopentyl)[Ac5c][NMeGly(cPent)][NMeD]-NMe2; lactam N-11) | 9.8 | 100 to 500
3 | CC[C@H](C)[C@@H]1NC(=O)[C@H](C)N(CC)C(=O)C[C@@H](C)N(C)C(=O)[C@H](C(C)C)N(C)C(=O)C2(CCCC2)NC(=O)[C@@H]2CCCN2C(=O)[C@H](CCc2ccc(C(F)(F)F)c(Cl)c2)NC(=O)CN(C)C(=O)[C@H](CC2CCCCC2)N(C)C(=O)CN(C)C(=O)CN(C)C1=O [Compound 264] (cyclo([Ac5c][NMeV][NMedβ3hAla][NEtAla]I[Sar][Sar][NMeCha][Sar][hPhe(3-Cl-4-CF3)]P)) | 4.5 | 100 to 500
4 | CC[C@H](C)[C@@H]1NC(=O)[C@H](CC(C)C)N(C)C(=O)C[C@@H](C(=O)N(C)C)N(C)C(=O)[C@H](C2CCCC2)N(C)C(=O)C2(CCCC2)NC(=O)[C@H](C)N(C)C(=O)[C@H](CCc2ccc(C(F)(F)F)c(Cl)c2)NC(=O)CN(C)C(=O)[C@H](CC2CCCCC2)N(C)C(=O)[C@@H]2CCN2C(=O)[C@H](C)N(C)C1=O [Compound 274] ([NMeL]I[NMeA][Aze][NMeCha][Sar][hPhe(3-Cl-4-CF3)][NMeA][Ac5c][NMeGly(cPent)][NMeD]-NMe2; lactam N-11) | 0.82 | 50 to 100
5 | CC[C@H](C)[C@@H]1NC(=O)[C@H](CC2CCCCC2)N(C)C(=O)C[C@@H](C)NC(=O)[C@H](C(C)C)N(C)C(=O)C2(CCCC2)NC(=O)[C@@H]2CCCN2C(=O)[C@H](CCc2ccc(C(F)(F)F)c(Cl)c2)NC(=O)CN(C)C(=O)[C@H](CC2CCCCC2)N(C)C(=O)CN(C)C(=O)CN(C)C1=O [Compound 285] (cyclo([Ac5c][NMeV][d(β3hA)][NMeCha]I[Sar][Sar][NMeCha][Sar][hPhe(3-Cl-4-CF3)]P)) | 52 | 100 to 500
6 | C=CC[C@@]1(C)NC(=O)[C@@H]2CCCN2C(=O)[C@H](CCc2ccc(C(F)(F)F)c(Cl)c2)NC(=O)CN(C)C(=O)[C@H](CC2CCCCC2)N(C)C(=O)CN(C)C(=O)CN(C)C(=O)[C@H]([C@@H](C)CC)NC(=O)[C@H](CC(C)C)N(C)C(=O)C[C@@H](C(=O)N2CCCCC2)N(C)C(=O)[C@H](C(C)C)N(C)C1=O [Compound 287] ([NMeL]I[Sar][Sar][NMeCha][Sar][hPhe(3-Cl-4-CF3)]P[dαMeGly(allyl)][NMeV][NMeD]-Piperidide; lactam N-11) | 5.1 | 100 to 500
7 | CC[C@H](C)[C@@H]1NC(=O)[C@H](CC(C)C)N(C)C(=O)C[C@@H](C(=O)N(C)C)N(C)C(=O)[C@H]([C@@H](C)CC)N(C)C(=O)C2(CCCC2)NC(=O)[C@@H](C)N(C)C(=O)[C@H](CCc2ccc(C(F)(F)F)c(Cl)c2)NC(=O)CN(C)C(=O)[C@H](Cc2ccc(C)cc2)N(C)C(=O)[C@@H]2CCN2C(=O)[C@H](C)N(C)C1=O [Compound 288] ([NMeL]I[NMeA][Aze][NMePhe(4-Me)][Sar][hPhe(3-Cl-4-CF3)][dNMeA][Ac5c][NMeI][NMeD]-NMe2; lactam N-11) | 1.7 | 100 to 500
8 | CC[C@H](C)[C@@H]1NC(=O)[C@H](C)N(C)C(=O)C[C@@H](C(=O)N2CCCCC2)N(C)C(=O)[C@H](C2CCCCC2)N(C)C(=O)C2(CCCC2)NC(=O)[C@@H]2CCCN2C(=O)[C@H](CCc2ccc(Cl)cc2)NC(=O)CN(C)C(=O)[C@H](CC2CCCCC2)N(C)C(=O)CN(C)C(=O)CN(C)C1=O [Compound 292] ([NMeA]I[Sar][Sar][NMeCha][Sar][hPhe(4-Cl)]P[Ac5c][NMeChg][NMeD]-Piperidide; lactam N-11) | 0.45 | 50 to 100
9 | C#CCC[C@H]1C(=O)N[C@@H]([C@@H](C)CC)C(=O)N(C)CC(=O)N(C)CC(=O)N(C)[C@@H](Cc2ccc(I)cc2)C(=O)N(C)CC(=O)N[C@@H](CCc2ccc(C(F)(F)F)c(Cl)c2)C(=O)N2CCC[C@H]2C(=O)NC2(CCCC2)C(=O)N(C)[C@@H](C2CCCCC2)C(=O)N[C@H](C)CC(=O)N1C [Compound 300] (cyclo([Ac5c][NMeChg][d(β3hA)][NMeHpra]I[Sar][Sar][NMePhe(4-I)][Sar][hPhe(3-Cl-4-CF3)]P)) | 9.5 | 100 to 500
10 | CC[C@H](C)[C@@H]1NC(=O)[C@H](CC(C)C)N(C)C(=O)C[C@@H](C(=O)N2CCCCC2)N(C)C(=O)[C@H](C2CCCCC2)N(C)C(=O)C2(CCCC2)NC(=O)[C@@H]2CCCN2C(=O)[C@H](CCc2ccc(C(F)(F)F)c(Cl)c2)NC(=O)CN(C)C(=O)[C@H](COC2CCC2)N(C)C(=O)CN(C)C(=O)CN(C)C1=O [Compound 309] ([NMeL]I[Sar][Sar][NMeS](Cyclobutyl)[Sar][hPhe(3-Cl-4-CF3)]P[Ac5c][NMeChg][NMeD]-Piperidide; lactam N-11) | 0.75 | 100 to 500
11 | CC[C@H](C)[C@@H]1NC(=O)[C@H](CC(C)C)N(C)C(=O)C[C@@H](C(=O)N2CCCCC2)N(C)C(=O)[C@H]([C@@H](C)CC)N(C)C(=O)C2(CCCC2)NC(=O)[C@@H]2CCCN2C(=O)[C@H](CCc2ccc(C(F)(F)F)c(Cl)c2)NC(=O)CN(C)C(=O)[C@H](CC2CCCCC2)N(C)C(=O)CN(C)C(=O)CN(C)C1=O [Compound 311] ([NMeL]I[Sar][Sar][NMeCha][Sar][hPhe(3-Cl-4-CF3)]P[Ac5c][NMeI][NMeD]-Piperidide; lactam N-11) | 5.9 | 20 to 50
12 | CC[C@H](C)[C@@H]1NC(=O)[C@H](CC2CCCCC2)N(C)C(=O)C[C@@H](C(=O)N2CCCCC2)N(C)C(=O)[C@H](C(C)C)N(C)C(=O)C2(CCCC2)NC(=O)[C@@H]2CCCN2C(=O)[C@H](CCc2ccc(C(F)(F)F)c(Cl)c2)NC(=O)CN(C)C(=O)[C@H](CC2CCCCC2)N(C)C(=O)CN(C)C(=O)CN(C)C1=O [Compound 321] ([NMeCha]I[Sar][Sar][NMeCha][Sar][hPhe(3-Cl-4-CF3)]P[Ac5c][NMeV][NMeD]-Piperidide; lactam N-11) | 11 | 100 to 500
13 | CC[C@H](C)[C@@H]1NC(=O)[C@H](CC(F)(F)F)N(C)C(=O)C[C@@H](C(=O)N2CCCC2)N(C)C(=O)[C@H](C2CCCCC2)N(C)C(=O)C2(CCCC2)NC(=O)[C@@H]2CCCN2C(=O)[C@H](CCc2ccc(C(F)(F)F)c(Cl)c2)NC(=O)CN(C)C(=O)[C@H](CC2CCCC2)N(C)C(=O)CN(C)C(=O)CN(C)C1=O [Compound 326] ([NMeAbu(4,4,4-F3)]I[Sar][Sar][NMeAla(cPent)][Sar][hPhe(3-Cl-4-CF3)]P[Ac5c][NMeChg][NMeD]-Pyrrolidide; lactam N-11) | 0.7 | 50 to 100
14 | CC[C@H](C)[C@@H]1NC(=O)[C@H](CC(C)C)N(C)C(=O)C[C@@H](C(=O)N2CCCCC2)N(C)C(=O)[C@H](CC(C)C)N(C)C(=O)C2(CCCC2)NC(=O)[C@@H]2CCCN2C(=O)[C@H](CCc2ccc(C(F)(F)F)c(F)c2)NC(=O)CN(C)C(=O)[C@H](Cc2ccc(Cl)cc2)N(CC)C(=O)CN(C)C(=O)CN(C)C1=O [Compound 328] ([NMeL]I[Sar][Sar][NEtPhe(4-Cl)][Sar][hPhe(3-F,4-CF3)]P[Ac5c][NMeL][NMeD]-Piperidide; lactam N-11) | 94 | 100 to 500
15 | CC[C@H](C)[C@@H]1NC(=O)[C@H](CC(C)C)N(C)C(=O)C[C@@H](C)N(C)C(=O)[C@H](C(C)C)N(C)C(=O)C2(CCCC2)NC(=O)[C@@H]2CCCN2C(=O)[C@H](CCc2ccc(C(F)(F)F)c(F)c2)NC(=O)CN(C)C(=O)[C@H](CC2CCCCC2)N(C)C(=O)CN(C)C(=O)CN(C)C1=O [Compound 337] (cyclo([Ac5c][NMeV][NMedβ3hAla][NMeL]I[Sar][Sar][NMeCha][Sar][hPhe(3-F,4-CF3)]P)) | 16 | 100 to 500
16 | CC[C@H](C)[C@@H]1NC(=O)[C@H](C2CCC2)N(C)C(=O)C[C@@H](C(=O)N2CCCC2)N(C)C(=O)[C@H](C2CCCCC2)N(C)C(=O)C2(CCCC2)NC(=O)[C@@H]2CCCN2C(=O)[C@H](CCc2ccc(C(F)(F)F)c(Cl)c2)NC(=O)CN(C)C(=O)[C@H](Cc2ccc(C)cc2)N(C)C(=O)CN(C)C(=O)CN(C)C1=O [Compound 339] ([NMeGly(cBu)]I[Sar][Sar][NMePhe(4-Me)][Sar][hPhe(3-Cl-4-CF3)]P[Ac5c][NMeChg][NMeD]-Pyrrolidide; lactam N-11) | 0.38 | 20 to 50
17 | CC[C@H](C)[C@@H]1NC(=O)[C@H](CC(C)C)N(C)C(=O)C[C@@H](C(=O)N(C)C)N(C)C(=O)[C@H]([C@@H](C)CC)N(C)C(=O)C2(CCCC2)NC(=O)[C@H](Cc2ccc(C)cc2)N(C)C(=O)[C@H](CCc2ccc(C(F)(F)F)c(Cl)c2)NC(=O)CN(C)C(=O)[C@H](Cc2ccc(C)cc2)N(C)C(=O)[C@@H]2CCN2C(=O)[C@H](C)N(C)C1=O [Compound 340] ([NMeL]I[NMeA][Aze][NMePhe(4-Me)][Sar][hPhe(3-Cl-4-CF3)][NMePhe(4-Me)][Ac5c][NMeI][NMeD]-NMe2; lactam N-11) | 4.7 | 20 to 50
